Assay results as given in US5488037A, “Antithrombotic agents” (Eli Lilly and Company, priority 1994, dated 1996).

Tests used:
human thrombin = human thrombin (Homo sapiens, UniProt P00734); assay: Inhibition of the amidase activity of human thrombin (chromogenic substrate, Kass); format: biochemical; details: apparent association constant, mean over a range of test compound concentrations; purified human thrombin, substrate N-benzoyl-Phe-Val-Arg-p-nitroanilide, pH 7.4
Procedure: The assay is carried out by mixing 50 μl buffer (0.03M Tris, 0.15M NaCl, pH 7.4) with 25 μl of human thrombin solution (purified human thrombin, Enzyme Research Laboratories, South Bend, Ind., at 8 NIH units/ml) and 25 μl of test compound in a solvent (50% aqueous methanol (v:v)). Then 150 μl of an aqueous solution of the chromogenic substrate (at 0.25 mg/ml) are added and the rates of hydrolysis of the substrate are measured by monitoring the reactions at 405 nm for the release of p-nitroaniline. Standard curves are constructed by plotting free thrombin concentration against hydrolysis rate. The hydrolysis rates observed with test compounds are then converted to "free thrombin" values in the respective assays by use of the standard curves. The bound thrombin (bound to test compound) is calculated by subtracting the amount of free thrombin observed in each assay from the known initial amount of thrombin used in the assay. The amount of free inhibitor in each assay is calculated by subtracting the number of moles of bound thrombin from the number of moles of added inhibitor (test compound).
The Kass value is the hypothetical equilibrium constant for the reaction between thrombin and the test compound (I). [drawing 45]
Kass is calculated for a range of concentrations of test compounds and the mean value reported in units of liter per mole.

[1] = Index of bioavailability: plasma thrombin time (TT) time course after i.v. bolus and oral treatment of rats; format: in vivo, rat; details: dose-adjusted AUC of plasma TT, p.o. (fasted conscious rats) relative to i.v. bolus (anesthetized rats)
From the text: Assays are done in duplicate and averaged.
Each sample population represents alternating sequential time points.

Row | Structure (SMILES) | Human Thrombin Inhibition Levels, Kass × 10^6 (l/mole) (human thrombin) | Index of Bioavailability, Percent Relative Activity [1] [%]
1 | Cl.Cl.N=C(N)NCCC[C@@H](C=O)NC(=O)[C@@H]1CCCN1C(=O)C1CCCNC1.O (stereo partly drawn) [Example 5, 3-piperidinocarbonyl-L-Pro-L-Arginine Aldehyde Dihydrochloride Monohydrate] | 2 × 10^6 l/mole | –
2 | Cl.Cl.N=C(N)NCCC[C@@H](C=O)NC(=O)[C@@H]1CCCN1C(=O)CN1CCCCC1.O [Example 4, 2-(2-Piperidino)acetyl-L-Pro-L-Arginine Aldehyde Dihydrochloride Monohydrate] | 1 × 10^6 l/mole | –
3 | Cl.Cl.N=C(N)NCCC[C@@H](C=O)NC(=O)[C@@H]1CCCN1C(=O)C1CNC2CCCCC21.O (stereo partly drawn) [Example 6, 3-perhydroindolylcarbonyl-L-Pro-L-Arginine Aldehyde Dihydrochloride Monohydrate] | 11 × 10^6 l/mole | –
4 | CNC1CCCCC1C(=O)N1CCC[C@H]1C(=O)N[C@H](C=O)CCCNC(=N)N.Cl.Cl (stereo partly drawn) [Example 7, 2-(N-methyl)aminocyclohexyl-carbonyl-L-Pro-L-Arginine Aldehyde Dihydrochloride] | 18.4 × 10^6 l/mole | –
5 | CNC(CC(=O)N1CCC[C@H]1C(=O)N[C@H](C=O)CCCNC(=N)N)C1CCCCC1.CNC(CC(=O)N1CCC[C@H]1C(=O)N[C@H](C=O)CCCNC(=N)N)C1CCCCC1.Cl.Cl.Cl.Cl.O (stereo partly drawn) [Example 2, N-methyl-3-amino-3-cyclohexyl propionyl-L-Pro-L-Arg aldehyde dihydrochloride hemihydrate] | 85 × 10^6 l/mole | 19
6 | CNCC(Cc1ccccc1)C(=O)N1CCC[C@H]1C(=O)N[C@H](C=O)CCCNC(=N)N.Cl.Cl.O (stereo partly drawn) [Example 3, N-Methyl-3-amino-2-benzylpropionyl-L-Pro-L-Arg Aldehyde Dihydrochloride Monohydrate] | 12 × 10^6 l/mole | 8
7 | CNC(CC(=O)N1CCC[C@H]1C(=O)N[C@H](C=O)CCCNC(=N)N)c1ccccc1.Cl.Cl.O.O (stereo partly drawn) [Example 1, N-methyl-3-amino-3-phenylpropionyl-L-Prolinyl-L-Arginine Aldehyde Dihydrochloride Dihydrate] | 70 × 10^6 l/mole | 28
8 | Cl.Cl.Cl.N=C(N)NCCC[C@@H](C=O)NC(=O)[C@@H]1CCCN1C(=O)C1CCCCC1N.O (stereo partly drawn) [Example 8, 2-aminocyclohexylcarbonyl-L-Pro-L-Arginine Aldehyde Trihydrochloride Monohydrate] | 39 × 10^6 l/mole | 15
